# Measured values from patent EP0588608A2, “Tricyclic compounds and pharmaceutical compositions containing them” (KYOWA HAKKO KOGYO CO., LTD., priority 1992, dated 1994).
# Assays:
# ACAT = ACAT inhibiting activity test using HepG2 cells; assay type: cell-based; conditions: 10⁻⁶M test compound, human cultured cell line HepG2, [14C]-oleic acid incorporation into cholesterol ester; 1 µM
# Procedure: The ACAT inhibiting activity test using cells of human cultured cell line HepG2 was carried out in accordance with the method of Goldstein et al as described in Methods Enzymology, 98, 241, 1983. 5 x 10⁵ cells/well of human cultured cell line HepG2 were pre-cultured in 5% LPDS (rabbit lipoprotein-deficient serum)-DMEM (Dulbecco Modified Eagle Medium) overnight, and the medium was changed for a fresh 5% LPDS-DMEM (1 mℓ/well). To the medium having the cells were added 3 µℓ, as a whole, of cholesterol and 25-OH-cholesterol as dissolved in ethanol (with the final concentration being 10 µg/mℓ and 5 µg/mℓ, respectively) and 10 µℓ of a test compound (shown in Table 3 below) as dissolved in methanol (with the final concentration being 10⁻⁶M). The cells were cultured for 4 hours. Then, 10 µℓ (0.42 µCi/0.1 µmol/well) of [¹⁴C]-oleic acid-BSA (bovine serum albumin) complex was added to the medium, and the cells were cultured for further 2 hours. After the cultured cells were washed, the lipid of the cells was extracted with 0.5 mℓ/well of hexane/isopropanol (3/2) containing [3H]-cholesterol oleic acid 2000 dpm. The extract was dried to a solid under reduced pressure and the solid was fractionated by silica gel thin layer chromatography using a developing solvent of petroleum ether/diethyl ether/acetic acid (170/30/1) whereupon the radioactivity of the spot of the cholesterol ester was measured with a liquid scintillation counter. Subtracting the radioactivity of the blank test to which cholesterol and 25-OH-cholesterol were not added from the radioactivity as measured above gives the radioactivity of the test compound. The ACAT inhibiting activity of the test compound was calculated from the following equation, based on the radioactivity of the control group as obtained in the same manner as above without using the test compound. ACAT Inhibition (%) = {[Radioactivity of Control Group) - (Radioactivity of Test Compound)]/(Radioactivity of Control Group)} x 100
# male ddy strain mice = experiment: Test for acute toxicity (minimum lethal dose, oral); assay type: in vivo; conditions: orally administered, mortality observed seven days after administration
# Procedure: Groups of 3 male ddy strain mice weighing 20±1g were used. The test compounds were orally administered. Seven days after administration, the mortality was observed and the minimum lethal dose (MLD) was determined.
SMILES,Percentage of ACAT Inhibition (ACAT),Acute Toxicity (MLD) (male ddy strain mice)
"Cc1ccc2c(c1)C(CNC(=O)Nc1c(C(C)C)cccc1C(C)C)c1ccccc1CO2 (centres unmarked) [Compound 1, N-(2,6-diisopropylphenyl)-N'-(2-methyl-6,11-dihydrodibenz[b,e]oxepin-11-ylmethyl)urea]",99%,
"CC(C)c1cccc(C(C)C)c1NC(=O)NCC1c2ccccc2COc2ccc(Br)cc21 (centres unmarked) [Compound 2, N-(2,6-diisopropylphenyl)-N'-(2-bromo-6,11-dihydrodibenz[b,e]oxepin-11-ylmethyl)urea]",98%,>300 mg/kg
"Cc1cc2c(c(C)c1Br)C(CNC(=O)Nc1c(C(C)C)cccc1C(C)C)c1ccccc1CO2 (centres unmarked) [Compound 3, N-(2,6-diisopropylphenyl)-N'-(2-bromo-1,3-dimethyl-6,11-dihydrobenz[b,e]oxepin-11-ylmethyl)urea]",97%,
CC(C)c1cccc(C(C)C)c1NC(=O)NC=C1c2ccccc2COc2ccccc21 [Compound 4],93%,
CC(C)c1cccc(C(C)C)c1NC(=O)NC=C1c2ccccc2CCc2ccccc21 [Compound 5],94%,>300 mg/kg
"CC(C)c1cccc(C(C)C)c1NC(=O)OCC1c2ccccc2COc2ccccc21 (centres unmarked) [Compound 6, (6,11-Dihydrodibenz[b,e]oxepin-11-ylmethyl)-(2,6-diisopropylphenyl)carbamate]",40%,
